ChEMBL document CHEMBL1150513, “A Hammett correlation for CC-1065 and duocarmycin analogs: Magnitude of substituent electronic effects on functional reactivity” (Bioorg Med Chem Lett, 1996)
Several values for one entry are separate records, joined by “and”; a condition that tells them apart may be missing. Equal values may be shown once.

Key:
[1] = Half life at a pH of 3.0.; format: ADME; conditions: pH 3
[2] = Aqueous solvolysis, K value at a pH of 3.0.; format: ADME; conditions: buffer, pH 3
L1210 = assay: Compound was tested in vitro for cytotoxic potency against L1210 leukemia.; format: functional, cell-based; conditions: Mus musculus
[3] = Half life at 0.1 equivalent H+ and 20 equivalent CH3OH.; format: ADME
[4] = Half life at 0.1 equivalent H+ and 500 equivalent CH3OH.; format: ADME
[5] = Half life at 0.25 equivalent H+ and 100 equivalent CH3OH.; format: ADME
[6] = Half life at a pH of 2.0.; format: ADME; conditions: pH 2
[7] = Kinetic constant at 0.1 equivalent H+ and 100 equivalent CH3OH.; format: ADME
[8] = Kinetic constant at 0.1 equivalent H+ and 20 equivalent CH3OH.; format: ADME
[9] = Kinetic constant at 0.1 equivalent H+ and 500 equivalent CH3OH.; format: ADME
[10] = Aqueous solvolysis, K value at a pH of 2.0.; format: ADME; conditions: buffer, pH 2
[11] = Kinetic constant at 0.25 equivalent H+ and 100 equivalent CH3OH.; format: ADME

| half-life [1] | k [2] | Compound | IC50 (L1210) | other results |
| --- | --- | --- | --- | --- |
| 36 h | 5.3e-06 s⁻¹ | CNC(=O)N1C[C@H]2C[C@@]23C1=CC(=O)c1ccccc13 | 200 nM |  |
| 0.01 h | 1.98e-06 s⁻¹ | CC(C)(C)OC(=O)N1C[C@H]2C[C@]23C=CC(=O)C=C13 | 18000 nM |  |
| 383 h | 5e-07 s⁻¹ | CCS(=O)(=O)N1C[C@H]2C[C@@]23C1=CC(=O)c1ccccc13 | 24 nM |  |
| 2.1 h | 9.07e-06 s⁻¹ | CC(C)(C)OC(=O)N1CC[C@H]2C[C@@]23C1=CC(=O)c1ccccc13 | 2000 nM |  |
| 96 h | 2e-06 s⁻¹ | CCC(=O)N1C[C@H]2C[C@@]23C1=CC(=O)c1ccccc13 | 110 nM |  |
|  | 1.75e-06 s⁻¹ | COC(=O)[C@]1(C)N=C2C(=O)C=C3N(C(=O)OC(C)(C)C)C[C@H]4C[C@@]34C2=C1O | 1000 nM |  |
| 133 h | 1.45e-06 s⁻¹ | CC(C)(C)OC(=O)N1C[C@H]2C[C@@]23C1=CC(=O)c1ccccc13 | 80 nM | k [10]: 1.53e-05 s⁻¹ |
| 110 h | 1.75e-06 s⁻¹ | COc1ccc2c(c1)[C@@]13C[C@@H]1CN(C(=O)OC(C)(C)C)C3=CC2=O | 90 nM | half-life [6]: 11.8 h; k [10]: 1.62e-05 s⁻¹ |

| Compound | half-life [1] | k [2] | IC50 (L1210) | other results |
| --- | --- | --- | --- | --- |
| COC(=O)N1C[C@H]2C[C@@]23C1=CC(=O)c1ccccc13 | 57 h | 3.4e-06 s⁻¹ | 140 nM |  |
| COC(=O)c1cc2c([nH]1)C(=O)C=C1N(C(=O)OC(C)(C)C)C[C@H]3C[C@]123 |  | 1.08e-06 s⁻¹ |  |  |
| Cc1c[nH]c2c1[C@@]13C[C@@H]1CN(C(=O)OC(C)(C)C)C3=CC2=O |  | 5.26e-06 s⁻¹ |  |  |
| CC(C)(C)OC(=O)N1C[C@H]2C[C@@]23C1=CC(=O)c1ccc(C#N)cc13 | 213 h | 9e-07 s⁻¹ | 20 nM | half-life [3]: 9.2 h; T1/2 [4]: 0.92 h and 0.34 h; half-life [5]: 0.26 h; half-life [6]: 24.2 h; k [7]: 2.1 s⁻¹; k [8]: 0.2 s⁻¹; k [9]: 5.6 s⁻¹; k [10]: 7.9e-06 s⁻¹; k [11]: 7.4 s⁻¹ |
